The target in test [1] is BK currents, cloned α-hSlo and β-bSlo in CHO cells (Homo sapiens, UniProt Q12791). As to the kind of experiment: Electrophysiological studies (whole-cell patch-clamp, BK currents). The conditions noted are these: ratio of current increase after application of compound (20 μM) relative to control current before application, steady-state. Type of test: cell-based. Here is the method:
CHO cells permanently transfected with cloned α-hSlo and β-bSlo were maintained as described above and used for electrophysiologial characterisation. The whole-cell configuration of the patch-clamp technique was used to determine the effect of modulators on BK currents in these cells. The cell line expressing functional BK currents (Zhou et al., Pflügers Arch 436, p.725 (1998)) were plated onto glass cover slips with a density of 1-5×10^4 cells/cover slip, incubated (37° C., 5% CO2) and used for patch-clamp experiments within 24-48 h. Cells were bathed in mammalian ringer solutions containing (in mM): 160 NaCl, 4.5 KCl, 2CaCl2, 1 MgCl2, 10 HEPES, adjusted to pH 7.4, 290-310 mOsim. The internal pipette solution contained (in mM): 160 KCl, 2CaCl2, 1 MgCl2, 10 HEPES, EGTA was added to reach a free [Ca^2+]internal=1×10 ^−6M, adjusted to pH 7.2, 290-310 mOsm.
Borosilicate pipettes with a resistance of 2-3 MΩ were filled with the internal solution and mounted on an appropriate holder. Prior to measurements a recording chamber was mounted onto the cell-plated cover slips and the cells were perfused with a simple syringe driven perfusion system. Compounds were added in the final concentration ([…]) to the bath solution using the same system. An EPC-9 patch-clamp amplifier with Pulse and PulseFit software (HEKA) was used to record and analyze currents.
After addition of the compounds to the bath solution their modulating effect was determined by the increase or decrease of specific BK currents after reaching steady-state relative to the BK current before application of drugs (see Table II).

The target in test [2] is BK channels, cloned hSlo (α-hSlo and β-bSlo) in CHO cells (Homo sapiens, UniProt Q12791). Kind of test: Em-Assay (voltage sensitive dye DiBAC(4)3 fluorescence, membrane potential). In kind it is cell-based. The conditions noted are these: ratio of the compound effect (50 μM) compared to the maximal effect of NS004 (25 or 50 μM); hSlo transfected CHO cells. An excerpt: The large conductance, voltage dependent and Ca^2+-activated potassium channel BK is a potassium selective ion channel and belongs to the subfamily of KCa channels. Four BK alpha-subunits form a functional channel that can be regulated by intracellular Ca^2+ concentration, membrane voltage, and other mechanisms like phosphorylation states or beta subunits. To test the biological activity of the compounds, we applied two different techniques, a fluorescence based assay using a voltage sensitive dye (Em-Assay) as well as exploiting electrophysiological methods.
CHO cells permanently transfected with cloned hSlo (α-hSlo and β-bSlo), yielding typical BK potassium currents (Zhou et al., Pflügers Arch., 436: 725-734 (1998), were used for the evaluation of compound activity. Activation or inhibition of BK channels in these cells leads to a change of the electrochemical gradient causing a hyperpolarized or depolarised membrane potential, respectively.
To determine changes in the membrane potential of the cells we used the voltage sensitive dye DiBAC(4)3 (Molecular Probes) in a kinetic assay system using a fluorescent plate reader (Manning and Sontheimer, J. Neurosci. Meth., 91: 73-81 (1999). The anionic bis-oxonol DiBAC(4)3 is a voltage sensitive dye which partitions from the extracellular environment into the cell where it reversibly binds to intracellular proteins, a kinetic process depending on the membrane potential of the cell. At depolarised potentials (i.e. at a reduced K^+ efflux due to blocked K^+ channels) the dye accumulates in the cell leading to an increased fluorescence intensity, due to its increased fluorescence if bound to cellular proteins. At hyperpolarized potentials (i.e. at an increased K^+ efflux due to the opening of K^+ channels), the dye partitions out of the cell causing a decreased fluorescence intensity.
hSlo transfected CHO cells where maintained in DMEM supplemented with 10% FCS, 250 μg/ml Geneticin, 100 μg/ml Hygromycin, 1×HT-Supplement, and 1×Non-essential Amino Acids and cultured in a humidified CO2 incubator. After trypsination, cells where plated with a density of 5×10^4 cells per well on a clear 96-well plate and incubated for 24 h. Cells where washed once with PBS, once with PBS containing 20 mM HEPES (adjusted to pH 7.4 with NaOH) and 2 μM DiBAC(4)3 (DPBS-DiMAC solution). 180 μl of the dPBS-DiBAC solution was then added to the cells and the plate incubated for 30-60 min at 37° C. During this time the dye could partition into the cells and reach a certain steady-state distribution, depending on the resting membrane potential. Test and reference compounds were stored as DMSO stock solutions and diluted in dPBS-DiBAC solution to the desired concentration.
Fluorescence intensity (Ex.: 485 nm/Em: 520 nm) of each well was detected in the plate reader (Fluostar, BMG) every 60 seconds. After recording the baseline fluorescence for 7 minutes, 20 μl test and reference compounds were added and the fluorescence intensity was detected for additional 15 minutes. Background was subtracted, data values were normalized and expressed as a change in fluorescence intensity against time. The change in fluorescence intensity caused by the test compounds was evaluated compared to the effect of the reference compound NS004, and the ratio was determined (see Table I).

SMILES strings stand for the structures.

Sequence of BK currents, cloned α-hSlo and β-bSlo in CHO cells (Q12791 whole entry): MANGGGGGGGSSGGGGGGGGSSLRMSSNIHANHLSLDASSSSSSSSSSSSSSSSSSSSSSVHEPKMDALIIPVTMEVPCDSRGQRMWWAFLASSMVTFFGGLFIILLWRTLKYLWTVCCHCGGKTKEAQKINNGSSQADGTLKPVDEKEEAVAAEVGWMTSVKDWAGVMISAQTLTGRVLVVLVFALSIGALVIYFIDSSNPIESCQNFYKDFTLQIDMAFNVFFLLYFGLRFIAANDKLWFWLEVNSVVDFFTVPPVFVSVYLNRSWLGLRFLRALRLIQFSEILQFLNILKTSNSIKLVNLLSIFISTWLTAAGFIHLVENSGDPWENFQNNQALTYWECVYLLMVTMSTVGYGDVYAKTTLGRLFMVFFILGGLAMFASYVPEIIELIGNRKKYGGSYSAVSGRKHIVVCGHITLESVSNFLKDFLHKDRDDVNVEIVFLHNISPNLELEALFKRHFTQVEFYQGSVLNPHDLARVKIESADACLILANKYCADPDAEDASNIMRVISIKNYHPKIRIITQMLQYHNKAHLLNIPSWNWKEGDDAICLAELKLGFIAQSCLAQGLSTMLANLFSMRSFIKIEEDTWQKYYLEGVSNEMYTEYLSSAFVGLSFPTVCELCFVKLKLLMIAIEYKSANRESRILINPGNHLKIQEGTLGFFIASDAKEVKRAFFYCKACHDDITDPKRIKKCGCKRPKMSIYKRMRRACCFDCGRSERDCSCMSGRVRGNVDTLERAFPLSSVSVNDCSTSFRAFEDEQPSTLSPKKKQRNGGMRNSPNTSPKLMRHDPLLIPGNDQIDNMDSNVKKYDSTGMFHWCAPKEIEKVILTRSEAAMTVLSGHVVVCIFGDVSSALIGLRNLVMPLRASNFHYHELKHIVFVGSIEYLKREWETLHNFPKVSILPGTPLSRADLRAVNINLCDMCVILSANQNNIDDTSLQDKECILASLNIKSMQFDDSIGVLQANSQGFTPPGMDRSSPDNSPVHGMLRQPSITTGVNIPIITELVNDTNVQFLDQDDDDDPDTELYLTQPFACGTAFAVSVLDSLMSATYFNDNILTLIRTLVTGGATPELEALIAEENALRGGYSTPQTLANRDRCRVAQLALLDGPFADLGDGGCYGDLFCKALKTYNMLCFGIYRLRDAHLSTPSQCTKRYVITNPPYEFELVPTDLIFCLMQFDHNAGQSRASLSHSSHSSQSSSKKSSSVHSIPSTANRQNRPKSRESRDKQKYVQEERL
Sequence of BK currents, cloned α-hSlo and β-bSlo in CHO cells (Q28067 whole entry partner): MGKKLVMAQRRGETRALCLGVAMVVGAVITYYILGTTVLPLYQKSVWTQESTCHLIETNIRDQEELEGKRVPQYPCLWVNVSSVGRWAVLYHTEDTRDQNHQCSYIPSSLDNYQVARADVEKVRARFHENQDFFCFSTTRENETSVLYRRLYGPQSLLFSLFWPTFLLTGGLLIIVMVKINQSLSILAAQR
Sequence of BK channels, cloned hSlo (α-hSlo and β-bSlo) in CHO cells (Q12791 whole entry): as the sequence (Q12791 whole entry) above
Sequence of BK channels, cloned hSlo (α-hSlo and β-bSlo) in CHO cells (Q28067 whole entry partner): as the sequence (Q28067 whole entry partner) above

Consider `Clc1ccccc1-c1ccc2[nH]ccc2c1` [Compound 30], for which the “Effect (ratio of current increase)” value in test [1] is on record as “+ (1-1.1=+)”. In test [2], the Em effect result is recorded as “++ (>1=++)”.
